Results on one compound are retold here after ChEMBL document CHEMBL5120838, “Synthesis and biological evaluation of geniposide derivatives as inhibitors of hyperuricemia, inflammatory and fibrosis” (Eur J Med Chem, 2022).

The subject of assay [1] is Mus musculus. The assay is described as follows: Nephroprotective activity against adenine and potassium oxonate-induced hyperuricemia Kunming mouse model assessed as reduction in renal tubule dilation at 20 mg/kg, po administered via gavage and measured after 21 days by hematoxylin-eosin and Masson trichrome staining based optical microscopic analysis. The assay is classed as functional, organism-based. The following applies: time 21.0 day.

Assay [2] deals with Mus musculus. The assay is described as follows: Renal protective activity against po dosed adenine and potassium oxonate-induced hyperuricemia Kunming mouse model assessed as reduction in TGF-beta1 expression in kidney administered via gavage for 2 weeks by immunohistochemical staining based optical microscopic analysis. The assay is classed as functional, organism-based. To be noted: dose 5-20 mg/kg, DDE = dose-dependent effect.

Assay [3] has as its system Mus musculus. The assay is described as follows: Renal protective activity against adenine and potassium oxonate-induced hyperuricemia Kunming mouse model assessed as reduction in IL-8 expression in kidney at 5 to 20 mg/kg, po administered via gavage for 2 weeks by ELISA relative to control. The assay is classed as functional. Details: scale not given: the % may be the effect or the level left. To be noted: dose 5-20 mg/kg.

Assay [4] concerns Mus musculus. The assay is described as follows: Nephroprotective activity against adenine and potassium oxonate-induced hyperuricemia Kunming mouse model assessed as reduction in cytoplasmic vacuolation of renal tubular epithelial cells at 20 mg/kg, po administered via gavage and measured after 21 days by hematoxylin-eosin and Masson trichrome staining based optical microscopic analysis. It is filed as functional, organism-based. To be noted: time 21.0 day.

For assay [5], the system named is Mus musculus. Nature of the assay: Renal protective activity against adenine and potassium oxonate-induced hyperuricemia Kunming mouse model assessed as reduction in hyperuricemia-induced renal fibrosis by measuring reduction in collagen-1 expression in kidney at 5 to 20 mg/kg, po administered via gavage for 2 weeks by immunoblot analysis. It is filed as functional, organism-based. The following applies: dose 5-20 mg/kg. In general terms: A western blot detects proteins with antibodies after separation by electrophoresis.

Assay [6] deals with Mus musculus. The assay is described as follows: Nephroprotective activity against adenine and potassium oxonate-induced hyperuricemia Kunming mouse model assessed as reduction in tubular-interstitial lesion development at 20 mg/kg, po administered via gavage and measured after 21 days by hematoxylin-eosin and Masson trichrome staining based optical microscopic analysis. The assay is classed as functional, organism-based. To be noted: time 21.0 day.

Assay [7] deals with Mus musculus. Nature of the assay: Anti-hyperuricemic activity against adenine and potassium oxonate-induced hyperuricemia Kunming mouse model assessed as reduction in serum creatinine level at 20 mg/kg, po administered via gavage once daily for 2 weeks (reference value: 87.62 +/- 0.67 uM). The assay is classed as functional.
Assay [8] has as its system Mus musculus. The assay is described as follows: Renal protective activity against adenine and potassium oxonate-induced hyperuricemia Kunming mouse model assessed as reduction in renal inflammation by measuring reduction in TLR4 expression at 5 to 20 mg/kg, po administered via gavage for 2 weeks by Western blot analysis. The following applies: dose 5-20 mg/kg. The assay is classed as functional, organism-based.

The test system of assay [9] is Mus musculus. Nature of the assay: Renal protective activity against adenine and potassium oxonate-induced hyperuricemia Kunming mouse model assessed as reduction in TNF-alpha expression in kidney at 5 to 20 mg/kg, po administered via gavage for 2 weeks by ELISA. It is filed as functional, organism-based. To be noted: dose 5-20 mg/kg.
The test system of assay [10] is HK-2. Nature of the assay: Inhibition of epithelial-mesenchymal transition in human HK-2 cells assessed as downregulation of uric acid-induced collagen-1 protein expression by Western blot analysis. It is filed as functional, cell-based. To be noted: dose 12.5-100 µM, DDE = dose-dependent effect.
Assay [11] relates to HK-2. The assay is described as follows: Cytoprotective activity in human HK-2 cells assessed as reduction in uric acid-induced increase in branches and intracellular space by inverted light microscopic analysis. The assay is classed as functional, cell-based. The following applies: dose 12.5-100 µM.
In assay [12] the test system is Mus musculus. The assay is described as follows: Anti-hyperuricemic activity against adenine and potassium oxonate-induced hyperuricemia Kunming mouse model assessed as reduction in serum uric acid level at 5 mg/kg, po administered via gavage once daily for 4 weeks (reference value: 356.15 +/- 3.31 uM). The assay is classed as functional.

Activity calls are given as the source filed them. The rule behind the calls is not given here.

As for `CC(=O)OCC1=CC[C@@H]2C(C(=O)Nc3ncco3)=CO[C@@H](O[C@@H]3O[C@H](COC(C)=O)[C@@H](OC(C)=O)[C@H](OC(C)=O)[C@H]3OC(C)=O)[C@H]12`, the result in the assay with Mus musculus [1], in the assay on Mus musculus [4], with Mus musculus [5], in the assay with Mus musculus [6], with Mus musculus [8] and in the assay on Mus musculus [9] was Active. The result in the assay with HK-2 [11] was Active. Also, the Activity entry in the assay on Mus musculus [2] is “Dde”; in the assay on Mus musculus [3], >50%; with Mus musculus [7] it was 29.08 µM; in the assay on Mus musculus [12], 198.27 µM. Further, the inhibition entry in the assay with HK-2 [10] is “Dde”.
